Eight molecules from PubChem BioAssay (NCI) can be followed below.

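Interpolation was linear, between the two tested concentrations surrounding the appropriate level; five concentrations were tested over 48 hours in 96-well plates. At the TGI there is no net growth.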

Some test systems named below: OVCAR-8 ovarian; SK-OV-3 ovarian; HCC-2998 colon; COLO 205 colon; NCI-H460 lung; K-562 leukemia; HT29 colon; DU-145 prostate; A498 renal; CAKI-1 renal; OVCAR-5 ovarian; TK-10 renal; U251 CNS; HOP-92 NSCLC; NCI/ADR-RES ovarian; HL-60(TB) leukemia; CCRF-CEM leukemia; HCT-15 colon.
What all share (experiment): inhibition of tumour cell growth, NCI panel, 48 h

Take `NC1CC(=O)c2csc(Cl)c21` (configuration not stated): the TGI in the assay with OVCAR-8 ovarian was 23 µM; in the assay with SK-OV-3 ovarian, 31.1 µM; in the assay on HCC-2998 colon, 33.9 µM; with COLO 205 colon it was 12.1 µM; with NCI-H460 lung it was 49.5 µM; with K-562 leukemia, more than 100 µM. The TGI amounted to 29.2 µM in the assay with HT29 colon; 20.9 µM in the assay with DU-145 prostate; 33.5 µM with A498 renal; 3.68 µM in the assay on CAKI-1 renal; 37.1 µM in the assay on OVCAR-5 ovarian; 24.1 µM in the assay with TK-10 renal. The TGI with U251 CNS was 22.9 µM; in the assay on HOP-92 NSCLC it was 25.4 µM; in the assay on NCI/ADR-RES ovarian it was more than 86.7 µM; with HL-60(TB) leukemia, 13.1 µM; with CCRF-CEM leukemia it was 3.68 µM; in the assay on HCT-15 colon, 14.2 µM.
With `COc1ccc([C@H]2C=C(c3cc(F)c(Cl)cc3Cl)NC(=S)N2)cc1`, the TGI in the assay on OVCAR-8 ovarian is more than 100 µM; in the assay with SK-OV-3 ovarian it was more than 100 µM; in the assay with HCC-2998 colon it was 70.5 µM; in the assay on COLO 205 colon it was 48.6 µM; in the assay with NCI-H460 lung it was 54.3 µM; in the assay on K-562 leukemia, more than 100 µM. In addition, the TGI was 80.5 µM in the assay on HT29 colon; more than 100 µM in the assay on DU-145 prostate; 79.2 µM in the assay on A498 renal; more than 100 µM in the assay on CAKI-1 renal; more than 100 µM in the assay with OVCAR-5 ovarian; more than 100 µM in the assay on TK-10 renal. The TGI with U251 CNS is 95.8 µM; in the assay on HOP-92 NSCLC, more than 100 µM; with NCI/ADR-RES ovarian, more than 100 µM; in the assay with HL-60(TB) leukemia, 35.7 µM; in the assay with CCRF-CEM leukemia it was more than 100 µM; in the assay with HCT-15 colon, more than 100 µM.
As to `CCN(CC)CCOC(=O)CCN1CC2CCC(CC2)C1`, the TGI in the assay on OVCAR-8 ovarian, in the assay with SK-OV-3 ovarian, in the assay on HCC-2998 colon, in the assay on COLO 205 colon, in the assay with NCI-H460 lung and in the assay on K-562 leukemia was more than 100 µM each time. The TGI with HT29 colon, with DU-145 prostate, in the assay with A498 renal, in the assay on CAKI-1 renal, with OVCAR-5 ovarian and in the assay on TK-10 renal was more than 100 µM in each case. Besides, the TGI in the assay with U251 CNS, in the assay on HOP-92 NSCLC, with NCI/ADR-RES ovarian, in the assay with HL-60(TB) leukemia, in the assay on CCRF-CEM leukemia and with HCT-15 colon was more than 100 µM each time.
For the molecule `CCN1C(=O)c2ccccc2C1(O)c1ccc(Cl)cc1` (configuration not stated), the TGI in the assay with OVCAR-8 ovarian, with SK-OV-3 ovarian, in the assay with HCC-2998 colon, with COLO 205 colon, in the assay with NCI-H460 lung and with K-562 leukemia was more than 100 µM each time. In addition, the TGI with HT29 colon, with DU-145 prostate, with A498 renal, in the assay on CAKI-1 renal, with OVCAR-5 ovarian and in the assay on TK-10 renal was more than 100 µM in each case. The TGI in the assay with U251 CNS, in the assay on HOP-92 NSCLC, in the assay with NCI/ADR-RES ovarian, in the assay on HL-60(TB) leukemia, in the assay on CCRF-CEM leukemia and with HCT-15 colon was more than 100 µM each time.
Turning to `NC1=CN(Cc2ccccc2)C2=N/C(=C\c3ccccc3)C(=O)N12`, the TGI with OVCAR-8 ovarian, in the assay on SK-OV-3 ovarian, in the assay on HCC-2998 colon, with COLO 205 colon, with NCI-H460 lung and in the assay with K-562 leukemia was more than 100 µM throughout. In addition, the TGI in the assay with HT29 colon, with DU-145 prostate, in the assay with A498 renal, in the assay on CAKI-1 renal, in the assay with OVCAR-5 ovarian and in the assay on TK-10 renal was more than 100 µM throughout. Besides, the TGI in the assay on U251 CNS, in the assay on HOP-92 NSCLC, with NCI/ADR-RES ovarian, in the assay with HL-60(TB) leukemia, in the assay with CCRF-CEM leukemia and in the assay with HCT-15 colon was more than 100 µM throughout.
Regarding `NCCCCN(CCCN)Cc1ccccc1`, the TGI in the assay with OVCAR-8 ovarian, in the assay with SK-OV-3 ovarian, with HCC-2998 colon, in the assay with COLO 205 colon, in the assay with NCI-H460 lung and in the assay with K-562 leukemia was more than 100 µM throughout. Also, the TGI with HT29 colon, in the assay on DU-145 prostate, in the assay with A498 renal, in the assay on CAKI-1 renal, in the assay on OVCAR-5 ovarian and with TK-10 renal was more than 100 µM each time. Further, the TGI in the assay on U251 CNS, with HOP-92 NSCLC, in the assay on NCI/ADR-RES ovarian, in the assay on HL-60(TB) leukemia, in the assay on CCRF-CEM leukemia and in the assay on HCT-15 colon was more than 100 µM in each case.
`O=C1C[C@@H](Sc2ccccc2)C2(OCCO2)[C@H]2ON3CCC[C@@H]3[C@@H]12`: the TGI amounted to 5.57 µM in the assay on OVCAR-8 ovarian; 27.9 µM with SK-OV-3 ovarian; 20.8 µM in the assay on HCC-2998 colon; 6.32 µM with COLO 205 colon; 18.7 µM in the assay with NCI-H460 lung; 13.8 µM in the assay on K-562 leukemia. The TGI came to 2.86 µM in the assay with HT29 colon; 6.07 µM in the assay with DU-145 prostate; 30.5 µM in the assay on A498 renal; 15.9 µM in the assay on CAKI-1 renal; 19.3 µM in the assay on TK-10 renal; 18 µM with U251 CNS. In addition, the TGI with HOP-92 NSCLC was found to be 11.4 µM; in the assay with NCI/ADR-RES ovarian it was 31.2 µM; in the assay with HL-60(TB) leukemia, 6.08 µM; in the assay with CCRF-CEM leukemia it was 5.72 µM; with HCT-15 colon, 9.7 µM.
Regarding `COc1cc2nc(-c3ccccc3F)[nH]c(=O)c2cc1OC`, the TGI in the assay with OVCAR-8 ovarian, with SK-OV-3 ovarian, in the assay with HCC-2998 colon, in the assay with COLO 205 colon, in the assay on NCI-H460 lung and with K-562 leukemia was more than 100 µM each time. The TGI with HT29 colon, with DU-145 prostate, in the assay on A498 renal, in the assay on CAKI-1 renal, with OVCAR-5 ovarian and in the assay with TK-10 renal was more than 100 µM each time. Also, the TGI in the assay on HOP-92 NSCLC, in the assay on NCI/ADR-RES ovarian, with HL-60(TB) leukemia, with CCRF-CEM leukemia and in the assay with HCT-15 colon was more than 100 µM in each case.
